We go through 8 compounds from ChEMBL document CHEMBL4715879, “Total Synthesis of the Antitumor-Antitubercular 2,6'-Bijuglone Natural Product Diospyrin and Its 3,6'-Isomer” (J Nat Prod, 2020).

Series [1] in a line: Selectivity index, ratio of IC50 for cytotoxicity against human NFF cells to […] for antiproliferative activity against mouse NS-1 cells.
The nature of series [2]: Inhibition of Mycobacterium tuberculosis DNA gyrase assessed as reduction in DNA supercoiled DNA formation incubated for 30 mins by […] analysis.
Series [3] is described as follows: Antiproliferative activity against mouse NS-1 cells assessed as reduction in cell viability after 48 hrs by resazurin dye based assay. Conditions: NS1, 48 h. It counts as functional. A general note: Alamar Blue is a resazurin reagent that responds to reducing activity.
For series [4], the system named is NFF. The experiment in a line: Cytotoxicity against human NFF cells assessed as reduction in cell viability after 48 hrs by resazurin dye based assay.
Series [5] has as its system NFF. The experiment in a line: Cytotoxicity against human NFF cells assessed as reduction in cell viability at 1 mM after 48 hrs by resazurin dye based assay relative to control. Conditions: 1000 µM.

As a reminder, the IC50 is the concentration that gives 50% inhibition. For the compound `Cc1cc(O)c2c(c1)C(=O)C(c1c(C)cc3c(c1O)C(=O)C=CC3=O)=CC2=O` [DIOSPYRIN], the “Ratio IC50” value in series [1] is on record as 10. The IC50 in series [2] worked out at 15 µM; in series [3] it was 0.8 µM; in the series with NFF [4], 5.8 µM.

With `Cc1cc2c(c(O)c1-c1c(C)cc(O)c3c1C(=O)C=CC3=O)C(=O)C=CC2=O`, the IC50 in series [2] came to 100 µM.

For the compound `Cc1cc(O)c2c(c1)C(=O)C=CC2=O` [RAMENTACEONE], the “Ratio IC50” value in series [1] is recorded as 15. Moreover, the IC50 came out at 0.5 µM in series [3] and 7.6 µM in the series with NFF [4].

`Cc1cc(O)c2c(c1)C(=O)C=C(c1c(C)cc(O)c3c1C(=O)C=CC3=O)C2=O` [NEODIOSPYRIN]: the IC50 in series [2] is 50 µM.

In the case of `O=C(O)c1cn(C2CC2)c2cc(N3CCNCC3)c(F)cc2c1=O` [CIPROFLOXACIN], the IC50 in series [2] came to 10 µM.

For `COc1cc(C)cc2c1C(=O)C=C(c1c(C)cc3c(c1OC)C(=O)C=CC3=O)C2=O`, in series [1], the “Ratio IC50” value was found to be 31. Further, the IC50 was found to be 0.8 µM in series [3] and 25.7 µM in the series with NFF [4].

For `O=c1[nH]cc(F)c(=O)[nH]1` [FLUOROURACIL], the “Ratio IC50” value in series [1] was >352. Besides, the IC50 in series [3] stood at 2.8 µM. In addition, the Activity in the series with NFF [5] is given as 13%.

Regarding `Cc1cc(O)c2c(c1)C(=O)C=C(c1c(C)cc3c(c1O)C(=O)C=CC3=O)C2=O`, the “Ratio IC50” value in series [1] was 14. The IC50 was 1.8 µM in series [3] and 31.8 µM in the series on NFF [4].
